The values below come from article PMC11172311, “Structural and Interactional Analysis of the Flavonoid Pathway Proteins: Chalcone Synthase, Chalcone Isomerase and Chalcone Isomerase-like Protein” (International Journal of Molecular Sciences, 2024).

pKi: −log10 of the molar value.

Assay [1] has as its target T1, PvCHS (chalcone synthase) (Panicum virgatum, UniProt A0A8T0PQ54).
T1 construct: gene PVAP13_8KG261900; full-length with N-terminal His6-tag; residues 8 to 395 of 402 resolved
T1 sequence (A0A8T0PQ54 1-402): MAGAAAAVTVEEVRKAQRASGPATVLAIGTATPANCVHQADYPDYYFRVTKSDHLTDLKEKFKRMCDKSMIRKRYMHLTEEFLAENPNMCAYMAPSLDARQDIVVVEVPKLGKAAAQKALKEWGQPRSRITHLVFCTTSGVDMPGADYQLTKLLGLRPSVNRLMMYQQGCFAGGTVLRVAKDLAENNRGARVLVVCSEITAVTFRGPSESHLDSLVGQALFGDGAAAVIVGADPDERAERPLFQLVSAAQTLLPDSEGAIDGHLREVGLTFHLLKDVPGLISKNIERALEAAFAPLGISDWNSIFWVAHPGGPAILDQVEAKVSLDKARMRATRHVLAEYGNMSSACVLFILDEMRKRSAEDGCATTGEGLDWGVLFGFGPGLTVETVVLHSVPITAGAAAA
Kind of assay: X-ray crystal structure (co-crystallization). Type of assay: binding.

In assay [2] the target is T2, PvCHI (chalcone isomerase) (Panicum virgatum, UniProt A0A8T0N7A2).
T2 construct: gene PVAP13_9KG390224; recombinant, N-terminal 6×-His tag
T2 sequence (A0A8T0N7A2 1-235): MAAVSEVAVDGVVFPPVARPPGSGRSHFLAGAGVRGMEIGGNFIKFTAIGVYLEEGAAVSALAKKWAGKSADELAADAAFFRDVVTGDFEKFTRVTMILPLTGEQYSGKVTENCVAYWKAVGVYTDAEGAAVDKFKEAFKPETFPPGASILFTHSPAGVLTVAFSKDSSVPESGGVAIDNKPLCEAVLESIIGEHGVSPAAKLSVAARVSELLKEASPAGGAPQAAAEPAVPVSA
Description: steady-state kinetics at […] nm; substrate inhibition (Km […], KI […]). The assay is classed as biochemical.

In assay [3] the target is T3, SbCHI (chalcone isomerase, Bmr30) (Sorghum bicolor, UniProt C5WV22).
T3 construct: gene SORBI_3001G035600; recombinant SbCHI
T3 sequence (C5WV22 1-231): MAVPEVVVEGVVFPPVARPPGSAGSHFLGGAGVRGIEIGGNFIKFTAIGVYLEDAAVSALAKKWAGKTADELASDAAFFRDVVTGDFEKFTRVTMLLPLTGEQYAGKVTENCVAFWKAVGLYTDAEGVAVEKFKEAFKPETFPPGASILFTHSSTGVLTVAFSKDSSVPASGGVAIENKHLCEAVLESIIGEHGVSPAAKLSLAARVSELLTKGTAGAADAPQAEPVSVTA
Kind of assay: X-ray crystal structure (binary complex). The assay is classed as binding.

The target in assay [4] is T2, PvCHI (chalcone isomerase). Description: steady-state kinetics with naringenin chalcone as substrate, […] liquiritigenin. The assay is classed as biochemical.
For assay [5], the target named is T1, PvCHS (chalcone synthase). Description: X-ray crystal structure (co-crystallization, ternary complex with CoA). The assay is classed as binding.

Take `CC(C)(COP(=O)(O)OP(=O)(O)OC[C@H]1O[C@@H](n2cnc3c(N)ncnc32)[C@H](O)[C@@H]1OP(=O)(O)O)[C@@H](O)C(=O)NCCC(=O)NCCS` [CoA]: the “X-ray crystal structure (co-crystallization)” value in assay [1] is on record as “The electron density corresponding to an extended CoA molecule (Figure 2B) along a continuous tunnel”.

Regarding `O=C(/C=C/c1ccc(O)cc1)c1ccc(O)cc1O` [isoliquiritigenin], the pKi in assay [2] was 4.95.

For the compound `O=C1C[C@@H](c2ccc(O)cc2)Oc2cc(O)ccc21` [liquiritigenin], the “X-ray crystal structure (binary complex)” value in assay [3] is reported as “the electron density corresponding to liquiritigenin that had been added to the crystallization buffer was clearly identified”. In addition, in assay [4], the pKi is 6.55.

`O=C1C[C@@H](c2ccc(O)cc2)Oc2cc(O)cc(O)c21` [naringenin]: in assay [5], the “X-ray crystal structure (co-crystallization, ternary complex with CoA)” value is “one naringenin molecule was visible in the concave pocket established at the interface between two PvCHS dimers”.

As a reminder, the pKi is the negative decadic logarithm of the Ki, by convention in mol/L.
